# According to patent publication US9428456B2, “1-[m-carboxamido(hetero)aryl-methyl]-heterocyclyl-carboxamide derivatives” (Actelion Pharmaceuticals Ltd., priority 2012, dated 2016):
# pEC50: −log10 of the molar value.
# Molecular target: CXCR7 (Homo sapiens (Human), UniProt P25106)
# Experiment: PathHunter CHO-K1 CXCR7 b-arrestin assay (agonistic activity)
# Format: cell-based
# Conditions: PathHunter CHO-K1 CXCR7 b-arrestin cell line
# Summary of the method: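 CHO-K1 cells co-expressing ProLink-tagged CXCR7 and EA-fused β-arrestin 2 (enzyme fragment complementation); compounds added in HBSS/20 mM HEPES/0.2% BSA after 3–4 h in OPTIMEM, 90 min at 37 °C. Chemiluminescent β-gal signal read after 1 h detection at room temperature; EC50 reported as geometric mean of several measurements.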
# CXCR7, sequence (P25106 whole entry): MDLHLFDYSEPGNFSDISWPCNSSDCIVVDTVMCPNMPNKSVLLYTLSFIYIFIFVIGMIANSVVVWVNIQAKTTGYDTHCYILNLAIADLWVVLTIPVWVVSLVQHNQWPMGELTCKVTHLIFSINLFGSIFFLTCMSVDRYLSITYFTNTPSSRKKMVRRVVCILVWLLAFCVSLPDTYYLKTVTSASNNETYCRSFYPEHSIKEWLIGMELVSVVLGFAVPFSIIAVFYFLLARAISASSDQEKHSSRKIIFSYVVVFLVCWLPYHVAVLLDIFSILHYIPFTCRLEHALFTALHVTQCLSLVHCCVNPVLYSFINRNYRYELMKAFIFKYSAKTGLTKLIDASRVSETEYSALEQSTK
# CXCR7, sequence (P32121 whole entry partner): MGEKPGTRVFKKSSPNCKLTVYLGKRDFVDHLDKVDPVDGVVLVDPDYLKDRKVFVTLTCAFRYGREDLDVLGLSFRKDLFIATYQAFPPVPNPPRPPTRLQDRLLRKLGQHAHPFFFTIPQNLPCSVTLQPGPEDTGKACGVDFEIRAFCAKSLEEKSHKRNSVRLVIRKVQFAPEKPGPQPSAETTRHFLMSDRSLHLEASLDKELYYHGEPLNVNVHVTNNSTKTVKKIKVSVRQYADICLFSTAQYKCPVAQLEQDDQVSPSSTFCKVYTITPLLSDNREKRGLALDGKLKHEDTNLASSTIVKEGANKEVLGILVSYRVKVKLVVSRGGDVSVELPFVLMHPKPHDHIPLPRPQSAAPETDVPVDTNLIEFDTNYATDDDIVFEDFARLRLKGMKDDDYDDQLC
compound,measurement,value
"Cc1cc(C(=O)Nc2cccc(CN3CCC(C(=O)NC(C)(C)C)CC3)c2)cnn1 [Example 7.001, 6-Methyl-pyridazine-4-carboxylic acid [3-(4-tert-butylcarbamoyl-piperidin-1-ylmethyl)-phenyl]-amide]",pEC50,7.21
CC(c1cccc(NC(=O)c2ccc(Cl)cn2)c1)N1CCC(C(=O)NC2CCCCC2)CC1 (racemic) [Example 1.168],pEC50,8.70
COc1ccc(C(=O)Nc2cccc(CN3CCC(C(=O)NC4CCCCC4)CC3)c2)cn1 [Example 1.092],pEC50,8.52
O=C(Nc1cccc(CN2CCC(C(=O)NC3CCCCC3)CC2)c1)c1ccccc1Cl [Example 1.050],pEC50,7.92
CC(C)(C)NC(=O)C1CCN(Cc2cccc(NC(=O)Cc3cnccn3)c2)CC1 [Example 1.263],pEC50,6.84
CCC(c1cccc(NC(=O)c2cccc(C(F)(F)F)n2)c1)N1CCC(C(=O)NC2CCCCC2)CC1 (racemic) [Example 1.308],pEC50,7.06
CC(C)(C)NC(=O)C1CCN(Cc2cccc(NC(=O)c3ccc(F)cc3)c2)CC1 [Example 1.223],pEC50,9.30
COc1cc(F)cc(C(=O)Nc2cccc(CN3CCC(C(=O)NC4CCCCC4)CC3)c2)c1 [Example 1.124],pEC50,8.30
COc1cccc(CC(=O)Nc2cccc(CN3CCC(C(=O)NC4CCCCC4)CC3)c2)c1 [Example 1.047],pEC50,7.77
O=C(Nc1cccc(CN2CCC(C(=O)NC3CCCCC3)CC2)c1)c1ccc(CCF)cc1 [Example 1.148],pEC50,8.30
CC(C)(C)NC(=O)C1CCN(Cc2cccc(NC(=O)Cc3c(F)cccc3Cl)c2)CC1 [Example 1.247],pEC50,8.70
O=C(Nc1cccc(CN2CCC(C(=O)NC3CCCCC3)CC2)c1)c1ccc(F)c(F)c1 [Example 1.129],pEC50,8.70
COc1ccc(CN2CCC(C(=O)NC(C)(C)C)CC2)cc1NC(=O)c1cccc(C(F)(F)F)n1 [Example 1.304],pEC50,8.40
Cc1c(CN2CCC(C(=O)NC(C)(C)C)CC2)cccc1NC(=O)c1cccc(C(F)(F)F)n1 [Example 1.315],pEC50,6.71
CC(C)(C)NC(=O)C1CCN(Cc2cccc(NC(=O)c3ncc(Cl)cc3F)c2)CC1 [Example 1.340],pEC50,9.15
O=C(Nc1cccc(CN2CCC(C(=O)NC3CCCCC3)CC2)c1)c1cnccn1 [Example 1.141],pEC50,8.70
Cc1cc(C)nc(C(=O)Nc2cccc(CN3CCC(C(=O)NC4CCCCC4)CC3)c2)c1 [Example 1.083],pEC50,7.96
O=C(Nc1cccc(CN2CCC(C(=O)NC3CCCCC3)CC2)c1)c1cnc[nH]1 [Example 1.040],pEC50,5.90
C=CC(=O)Nc1cccc(CN2CCC(C(=O)NC(C)(C)C)CC2)c1 [Example 1.336],pEC50,7.08
O=C(Nc1cccc(CN2CCC(C(=O)NC3CCCCC3)CC2)c1)c1cccc2ccncc12 [Example 1.010],pEC50,7.17
O=C(Nc1cccc(CN2CCC(C(=O)NC3CCCCC3)CC2)c1)c1cnc2cc[nH]c2c1 [Example 1.093],pEC50,6.83
CC(C)CN(C)C(=O)C1CCN(Cc2cccc(NC(=O)c3cncc(C(F)(F)F)c3)c2)CC1 [Example 1.276],pEC50,8.22
O=C(Nc1cc(CN2CCC(C(=O)NC3CCCCC3)CC2)ccc1Cl)c1ccc(Cl)cc1 [Example 1.160],pEC50,8.30
O=C(Nc1cccc(CN2CCC(C(=O)NC3CCCCC3)CC2)c1)c1ccc(Cl)c(Cl)c1 [Example 1.140],pEC50,8.30
O=C(CCc1ccccc1)Nc1cccc(CN2CCC(C(=O)NC3CCCCC3)CC2)c1 [Example 1.034],pEC50,7.74
O=C(Nc1cccc(CN2CCC(C(=O)NC3CCCCC3)CC2)c1)c1ccc(Cl)c2c1CCO2 [Example 1.143],pEC50,8.30
1-[3-(4-Chloro-benzoylamino)-benzyl]-piperidine-4-carboxylic acid (1-cyano-cyclopropyl)-amide [Example 2.036],pEC50,7.82
O=C(Nc1cccc(CN2CCC(C(=O)NC3CCCCC3)CC2)c1)C1CCCCC1 [Example 1.151],pEC50,8.00
Cc1ccc(C(=O)Nc2cccc(CN3CCC(C(=O)NC4CCCCC4)CC3)c2)cn1 [Example 1.064],pEC50,7.72
CC(c1cccc(NC(=O)c2ncccn2)c1)N1CCC(C(=O)NC2CCCCC2)CC1 (racemic) [Example 1.195],pEC50,6.75
CC(C)CN(C)C(=O)C1CCN(Cc2cccc(NC(=O)c3cncc(F)c3)c2)CC1 [Example 1.277],pEC50,7.74
O=C(Nc1cccc(CN2CCC(C(=O)NC3CCCCC3)CC2)c1)c1cccc(F)c1F [Example 1.128],pEC50,8.30
